Test results taken from paper PMC8747639, “Novel Angiotensin-Converting Enzyme Inhibitory Peptides Identified from Walnut Glutelin-1 Hydrolysates: Molecular Interaction, Stability, and Antihypertensive Effects” (Nutrients, 2021).
No end group written: not given here.

Key:
[1] = system: spontaneously hypertensive rats (SHRs); assay: BP measurement after single oral administration in SHR (tail-cuff); type: in vivo, rat; conditions: single intragastric administration, 0-8 h
Procedure: (§1) Thirty 10-week-old male spontaneously hypertensive rats (SHRs) and five normal male rats of the same age were used for the experiment. The rats were placed at 25 °C ± 1 °C, relative humidity of 45–55% and a light/dark cycle for 12 h. SHRs were randomly divided into 6 groups after one week of adaptation, while rats in the normal group (NG) were used as controls. The administration was continued for 28 days.
(§2) Rats in the normal and SHR groups were given 1.0 mL of 0.9% saline per day, while the positive control group was given captopril (10 mg/kg body weight) per day. The ACE inhibitory peptides treatment groups’ low and high doses were fed orally with 5 and 15 mg/kg (based on their body weight) by dissolving the peptides in 1.0 mL of 0.9% normal saline. The rats’ BP was measured by the tail-cuff method. The systolic blood pressure (SBP), diastolic blood pressure (DBP), and heart rate of all rats were measured after a single oral administration (0–8 h) and weekly (0–4 weeks). All measurements were repeated at least three times so the average value could be calculated.

[2] = system: spontaneously hypertensive rats (SHRs); assay: BP measurement during four weeks of oral administration in SHR (tail-cuff); type: in vivo, rat; conditions: daily oral; for SBP compared with the SHRs group after one week of oral administration: peptides 5 and 15 mg/kg, p < 0.01
Procedure: as §1, §2

[3] = system: serum ET-1, NO, ACE, Ang II, AGT, ALD; assay: Serum ET-1, NO, ACE, Ang II, AGT and ALD in SHR (ELISA / NO kit); type: in vivo, rat; conditions: 28 days oral administration; for serum ACE level of the SHR control group compared with the treated group / serum AGT level of the SHR control group compared with the treated group / serum ALD level of the SHR control group compared with the treated group / serum AngII level of the SHR control group compared with the treated group: p < 0.05
Text: (§3) The Grain, Oil and Protein Engineering Laboratory of Shaanxi Normal University (Xi’an, China) provided the defatted walnut meal. ACE (from rabbit lung) and hippuryl-histidyl-leucine (HHL) were purchased from Sigma Co., St. Louis, MO, USA. Pepsin (3 × 10^3 U/g) was obtained from Solarbio Science & Technology, Co., Ltd. (Beijing, China). High-performance liquid chromatography grade acetonitrile and trifluoroacetic acid were purchased from Fischer Scientific Co. (Waltham, MA, USA). The enzyme-linked immunosorbent assay kit for the detection of ACE, angiotensinogen (AGT), aldosterone (ALD), and Endothelin-1(ET-1) was purchased from Jiangsu Jingmei Biotechnology Co., Ltd. (YanCheng, China). The enzyme-linked immunosorbent assay kit for the detection of Ang II was obtained from Shanghai Kexing Biotechnology Co., Ltd., (Shanghai, China). and the nitric oxide (NO) detection kit was a product of Nanjing Jiancheng Institute of Biological Engineering (Nanjing, China), and other chemical reagents used in the experiment were of analytical grade.
The upper serum samples were obtained by centrifugation at 3000× g at 4 °C for 10 min after the blood was taken from the abdominal aorta of all rats. The samples were stored at −20 °C, and the serum expression was detected using the ELISA kit (double antibody sandwich enzyme-linked immunosorbent assay).

[4] = molecular target: T1, ACE (from rabbit lung) (Oryctolagus cuniculus, UniProt P12822); assay: ACE inhibitory activity (HHL substrate, absorbance); type: biochemical
T1 construct: ACE (from rabbit lung) and hippuryl-histidyl-leucine (HHL) were purchased from Sigma Co; purchased Sigma Co., St. Louis, MO, USA; host or cells: rabbit lung (tissue-derived)
T1 sequence (P12822 34-1310): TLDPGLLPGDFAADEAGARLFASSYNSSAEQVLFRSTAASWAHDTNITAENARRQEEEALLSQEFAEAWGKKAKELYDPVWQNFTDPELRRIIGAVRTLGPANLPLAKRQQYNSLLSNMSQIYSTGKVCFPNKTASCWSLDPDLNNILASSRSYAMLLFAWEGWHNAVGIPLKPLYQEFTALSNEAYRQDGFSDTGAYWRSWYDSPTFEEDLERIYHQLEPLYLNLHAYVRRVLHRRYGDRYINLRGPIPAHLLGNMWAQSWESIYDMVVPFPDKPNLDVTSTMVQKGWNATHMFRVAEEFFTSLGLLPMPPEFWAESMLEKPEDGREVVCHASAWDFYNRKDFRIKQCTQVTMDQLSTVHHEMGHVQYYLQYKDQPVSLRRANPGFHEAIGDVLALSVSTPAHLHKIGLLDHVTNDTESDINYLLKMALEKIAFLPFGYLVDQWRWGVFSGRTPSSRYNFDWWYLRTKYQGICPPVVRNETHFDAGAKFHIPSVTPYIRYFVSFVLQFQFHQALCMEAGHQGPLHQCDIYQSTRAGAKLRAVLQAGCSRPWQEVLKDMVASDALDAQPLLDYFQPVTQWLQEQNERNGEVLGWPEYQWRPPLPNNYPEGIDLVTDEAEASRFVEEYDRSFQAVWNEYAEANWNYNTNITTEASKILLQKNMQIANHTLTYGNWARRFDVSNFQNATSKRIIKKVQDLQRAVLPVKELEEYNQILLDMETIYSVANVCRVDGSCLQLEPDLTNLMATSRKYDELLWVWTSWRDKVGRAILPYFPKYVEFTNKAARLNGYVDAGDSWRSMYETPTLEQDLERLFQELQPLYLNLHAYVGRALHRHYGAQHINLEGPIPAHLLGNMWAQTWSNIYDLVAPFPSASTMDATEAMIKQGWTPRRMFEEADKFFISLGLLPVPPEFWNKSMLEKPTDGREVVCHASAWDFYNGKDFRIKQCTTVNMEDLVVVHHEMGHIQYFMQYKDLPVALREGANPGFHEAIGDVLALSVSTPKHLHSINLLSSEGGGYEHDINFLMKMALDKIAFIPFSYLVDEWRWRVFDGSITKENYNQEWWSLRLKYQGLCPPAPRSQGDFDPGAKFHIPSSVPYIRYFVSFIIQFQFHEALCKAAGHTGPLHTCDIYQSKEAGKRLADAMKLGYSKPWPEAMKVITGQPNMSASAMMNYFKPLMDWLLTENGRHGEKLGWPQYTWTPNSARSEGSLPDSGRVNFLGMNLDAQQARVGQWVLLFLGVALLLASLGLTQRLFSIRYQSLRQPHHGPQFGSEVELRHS
Text: as §3
Following a previous method reported by Zheng et al. (2017), we could determine the ACE inhibitory activity of glutelin-1 hydrolysate, separated fractions, active peptides, and all the other samples with 1.0 mg/mL Captopril as a positive control. The IC50 value (the concentrationof the inhibitory peptide (μM) had to inhibit 50% of the ACE activity) was calculated by linear regression of the curve.
The following formula was used to calculate the ACE inhibition rate (%): ACE inhibition rate(%)=(1-As/Ac)×100 where Ac represents ACE solution’s absorbance without an inhibitor and As represents the mixture containing samples.

[5] = system: pepsin and trypsin; assay: GI digestion stability of the synthesized peptides (pepsin, trypsin), read out as ACE inhibitory activity; type: in vitro ADME; conditions: pepsin 1 mg/mL pH 2.0 37 °C 3 h, or trypsin 1.0 mg/mL pH 8.0 37 °C 4 h
Procedure: We conducted a GI digestion stability analysis of the synthesized peptides according to the method proposed by Khueychai et al. (2018) with slight modifications. Briefly, the peptide solution was incubated with 1 mg/mL of pepsin solution (0.1 M HCl, pH 2.0) at 37 °C for 3 h. Subsequently, the pH value of the mixed solution was adjusted to 8.0 with 1.0 M NaOH, and 1.0 mg/mL of trypsin added and incubated at 37 °C for 4 h. Finally, the ACE inhibitory activity of the reaction solution could be determined after boiling for 10 min, cooling to room temperature, and centrifuging for 15 min at 10,000× g.

[6] = Temperature, pH, metal ion, sugar and salt treatment stability of the synthesized peptides, read out as ACE inhibition rate; type: physicochemical; conditions: 1.0 mg/mL peptide
Procedure: The effect of temperature, pH, metal ion, sugar, and salt treatments on the stabilities of two synthesized peptides, were determined by incubating 1.0 mg/mL of VERGRRITSV and FVIEPNITPA at 20 °C, 40 °C, 60 °C, 80 °C, and 100 °C for 2 h; 37 °C for 2 h at pH 2, 4, 6, 8, and 10; with 100 μg/mL of KCl, CaCl2, ZnSO4, MgSO4, and FeSO4 solution at 37 °C for 2 h; with glucose solutions of 2%, 4%, 8%, and 12% at 37 °C for 30 min; with NaCl solutions of 2%, 4%, 8%, and 12% at 37 °C for 30 min, respectively. The ACE inhibition rate was measured immediately after incubation.

[7] = captopril 10 mg/kg, peptides low dose 5 mg/kg, decline reached a maximum in the second week
[8] = NaCl solutions 2-12%, 37 °C for 30 min, read-out ACE inhibition rate

## C[C@H](CS)C(=O)N1CCC[C@H]1C(=O)O [captopril, reference compound]
[1]; captopril 10 mg/kg
  maximal reduction in SBP: 29.5 mmHg
[2]; captopril 10 mg/kg
  SBP compared with the SHRs group after one week of oral administration: significantly lower
[2]; [7]
  DBP course during continuous administration: began to decrease after one week of continuous administration
[3]; ELISA
  serum ACE level of the SHR control group compared with the treated group: significantly higher
  serum AGT level of the SHR control group compared with the treated group: significantly higher
  serum ALD level of the SHR control group compared with the treated group: significantly higher
  serum AngII level of the SHR control group compared with the treated group: significantly higher

## FVIEPNITPA [FVIEPNITPA, Phe-Val-Ile-Glu-Pro-Asn-Ile-Thr-Pro-Ala]
[4]; calculated by linear regression of the curve, read-out: IC50 on angiotensin converting enzyme (ACE)
  IC50: 6.36 µM
[4]; fractions from Sephadex G-15 (1.0 mg/mL) or RP-HPLC, control glutelin-1 hydrolysate before separation
  ACE inhibitory activity compared among fractions or with the glutelin-1 hydrolysate (in words): highest ACE inhibitory activity
[1]; high dose 15 mg/kg
  maximal reduction in SBP: 30.4 mmHg
[1]; low dose 5 mg/kg
  maximal reduction in SBP: 23.0 mmHg
[2]; captopril 10 mg/kg
  SBP compared with the SHRs group after one week of oral administration: significantly lower
[2]; [7]
  DBP course during continuous administration: began to decrease after one week of continuous administration
[2]; high dose 15 mg/kg
  DBP course during continuous administration: began to decrease in the second week after administration
[3]; ELISA, SHR control significantly higher than the other groups (p < 0.01)
  serum ET-1 levels: low ET-1 levels
[3]; ELISA
  serum ACE level of the SHR control group compared with the treated group: significantly higher
  serum AGT level of the SHR control group compared with the treated group: significantly higher
  serum ALD level of the SHR control group compared with the treated group: significantly higher
  serum AngII level of the SHR control group compared with the treated group: significantly higher
[3]; NO detection kit, SHR control significantly lower than treated groups (p < 0.05)
  serum NO content: equivalent to that of the captopril group
[5]
  ACE inhibitory activity under pepsin or trypsin digestion: could still maintain high ACE inhibitory activity
[6]; 100 μg/mL KCl, CaCl2, MgSO4, 37 °C for 2 h, read-out ACE inhibition rate
  stability of ACE inhibitory activity with metal ions K+, Ca2+ and Mg2+: showed stability
[6]; 20 °C-60 °C for 2 h, read-out ACE inhibition rate
  ACE inhibitory activity after temperature treatment: did not change much
[6]; 37 °C for 2 h at pH 2, 4, 6, 8 and 10, read-out ACE inhibition rate
  effect of change of pH value on ACE inhibitory activity: no significant effect
[6]; 80 °C for 2 h
  ACE inhibition rate after temperature treatment: above 80%
[6]; 100 °C for 2 h
  ACE inhibition rate after temperature treatment: about 70%
[6]; [8]
  stability of ACE inhibitory activity under high-concentration salt conditions: less stable
  stability of ACE inhibitory activity under low-concentration salt conditions: good stability
[6]; glucose solutions 2-12%, 37 °C for 30 min, low concentrations, read-out ACE inhibition rate
  stability of ACE inhibitory activity at low glucose concentration: showed stability
